Assay results from the supplement of paper PMC10331698.
± gives the standard deviation of the averaged measurements.

What was measured:
Experiment in all cases: level (log10 ratio to DMSO vehicle control); higher = higher biomarker level / cell amount than vehicle control
[1] = compound: C=C(C)C(=O)OCCC(F)(F)C(F)(F)C(F)(F)C(F)(F)C(F)(C(F)(F)F)C(F)(F)F [(Perfluoro-5-methylhexyl)ethyl 2-methylprop-2-enoate]; conditions: in DMSO
Method: (§1)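 BioMAP Diversity Plus panel of 12 human primary cell co-culture systems (3C, 4H, LPS, SAg, BT, BF4T, BE3C, CASM3C, HDF3CGF, KF3CT, MyoF, Mphg). Compounds were added 1 h before stimulation and left for 24 h (MyoF 48 h; BT 72 h for soluble read-outs or 6 d for IgG). Biomarkers were read by ELISA, cytotoxicity by SRB, PBMC viability and proliferation by Alamar Blue. Each well value was divided by the mean of 8 DMSO control wells on the same plate and log10 transformed; duplicate blinded samples were tested at 4 concentrations.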

Pentafluoropropionamide = compound: NC(=O)C(F)(F)C(F)(F)F [Pentafluoropropionamide]; conditions: in DMSO
Method: as §1

Perfluoroheptanoic acid = compound: O=C(O)C(F)(F)C(F)(F)C(F)(F)C(F)(F)C(F)(F)C(F)(F)F [Perfluoroheptanoic acid]; conditions: in DMSO
Method: as §1

[2] = compound: O=C(O)C(F)(F)C(F)(F)C(F)F [4H-Perfluorobutanoic acid]; conditions: in DMSO
Method: as §1

Perfluoropropanoic acid = compound: O=C(O)C(F)(F)C(F)(F)F [Perfluoropropanoic acid]; conditions: in DMSO
Method: as §1

[3] = compound: OCC(F)(F)OC(F)(F)C(F)(F)OC(F)(F)CO [1H,1H,8H,8H-Perfluoro-3,6-dioxaoctane-1,8-diol]; conditions: in DMSO
Method: as §1

[4] = compound: OCCC(F)(F)C(F)(F)C(F)(F)C(F)(F)C(F)(F)C(F)(F)F [6:2 Fluorotelomer alcohol]; conditions: in DMSO
Method: as §1

[5] = compound: OCCCC(F)(F)C(F)(F)C(F)(F)C(F)(F)C(F)(F)C(F)(F)C(F)(F)F [7:3 Fluorotelomer alcohol]; conditions: 6700 nM; in DMSO
Method: as §1

Test System | level (log10) ([1]; 6700 nM) | level (log10) ([1]; 20000 nM) | level (log10) (Pentafluoropropionamide; 6700 nM) | level (log10) (Pentafluoropropionamide; 20000 nM) | level (log10) (Pentafluoropropionamide; 60000 nM) | level (log10) (Perfluoroheptanoic acid; 6700 nM) | level (log10) (Perfluoroheptanoic acid; 20000 nM) | level (log10) (Perfluoroheptanoic acid; 60000 nM) | level (log10) ([2]; 6700 nM) | level (log10) ([2]; 20000 nM) | level (log10) ([2]; 60000 nM) | level (log10) (Perfluoropropanoic acid; 6700 nM) | level (log10) (Perfluoropropanoic acid; 20000 nM) | level (log10) (Perfluoropropanoic acid; 60000 nM) | level (log10) ([3]; 6700 nM) | level (log10) ([3]; 20000 nM) | level (log10) ([3]; 60000 nM) | level (log10) ([4]; 6700 nM) | level (log10) ([4]; 20000 nM) | level (log10) [5]
BT:sIL-17F | 0.004 ± 0.15 | -0.0015 ± 0.0092 | -0.02 ± 0.085 | -0.03 | 0.0275 ± 0.0064 | -0.0725 ± 0.13 | -0.023 ± 0.21 | -0.013 ± 0.045 | -0.0445 ± 0.005 | -0.067 ± 0.17 | -0.0165 ± 0.036 | 0.0335 ± 0.0035 | 0.0335 ± 0.023 | -0.0045 ± 0.052 | 0.045 | -0.0205 ± 0.023 | -0.137 ± 0.096 | -0.087 ± 0.17 | -0.146 ± 0.18 | 0.0115 ± 0.056
BT:sTNF-alpha | 0.0485 ± 0.1 | 0.0945 ± 0.03 | 0.0135 ± 0.0078 | 0.0225 ± 0.081 | -0.0025 ± 0.0092 | -0.0045 ± 0.11 | -0.0405 ± 0.05 | -0.064 ± 0.17 | -0.0585 ± 0.022 | -0.055 ± 0.0071 | -0.048 ± 0.13 | 0.0405 ± 0.06 | 0.058 ± 0.096 | -0.0255 ± 0.11 | 0.17 ± 0.053 | 0.023 ± 0.19 | -0.036 ± 0.1 | 0.071 ± 0.028 | -0.0445 ± 0.015 | 0.009 ± 0.028
LPS:CCL2/MCP-1 | 0.009 ± 0.021 | 0.0115 ± 0.028 | -0.0035 ± 0.011 | -0.017 ± 0.0028 | 0.008 ± 0.04 | -0.0025 ± 0.021 | -0.005 ± 0.0028 | 0.032 ± 0.011 | -0.0195 ± 0.0021 | -0.007 ± 0.0042 | 0.017 ± 0.054 | -0.011 ± 0.014 | -0.008 ± 0.031 | 0.019 ± 0.068 | -0.002 | -0.015 ± 0.0071 | 0.008 ± 0.0057 | 0.002 ± 0.0085 | -0.022 ± 0.0071 | -0.026 ± 0.023
LPS:CD40 | 0.07 ± 0.038 | -0.0015 ± 0.016 | -0.0315 ± 0.047 | -0.04 ± 0.013 | -0.025 ± 0.02 | -0.0135 ± 0.043 | 0.0055 ± 0.00071 | -0.0515 ± 0.079 | -0.0365 ± 0.022 | -0.0355 ± 0.021 | 0.015 ± 0.031 | 0.0105 ± 0.043 | -0.0235 ± 0.0035 | 0.011 ± 0.023 | 0.006 ± 0.027 | 0.017 ± 0.0028 | 0.0005 ± 0.03 | -0.0015 ± 0.03 | -0.0315 ± 0.015 | 0.0345 ± 0.005
LPS:CD62E/E-Selectin | 0.006 ± 0.0099 | 0.0095 ± 0.012 | -0.0265 ± 0.025 | -0.0185 ± 0.028 | -0.004 ± 0.0071 | -0.009 ± 0.0028 | 0 ± 0.017 | 0.01 | -0.006 ± 0.013 | 0.002 ± 0.0028 | 0.0075 ± 0.011 | -0.007 ± 0.0014 | -0.0195 ± 0.023 | -0.0025 ± 0.0078 | -0.0065 ± 0.0078 | -0.0155 ± 0.015 | 0.003 ± 0.0057 | 0.01 ± 0.038 | -0.025 ± 0.025 | -0.0125 ± 0.016
LPS:CD69 | -0.019 ± 0.069 | -0.0145 ± 0.08 | -0.03 ± 0.0014 | -0.0255 ± 0.016 | -0.01 ± 0.0028 | -0.0095 ± 0.0035 | -0.025 | -0.057 ± 0.013 | 0.024 ± 0.035 | 0.02 ± 0.034 | 0.028 ± 0.028 | -0.001 ± 0.023 | 0.0035 ± 0.012 | 0.005 ± 0.027 | 0.0335 ± 0.083 | 0.033 ± 0.042 | 0.0025 ± 0.029 | -0.006 ± 0.04 | 0 | -0.007 ± 0.0014
